# Test results published in article PMC9923724, “Half sandwich-type osmium, ruthenium, iridium and rhodium complexes with bidentate glycosyl heterocyclic ligands induce cytostasis in platinum-resistant ovarian cancer cells and bacteriostasis in Gram-positive multiresistant bacteria” (Frontiers in Chemistry, 2023).
# “And” between values parts separate entries of the source, which are not always exact repeats. Identical values can stand only once.
# How the values were obtained:
# [1] = tested on: A2780 ovarian cancer cells; assay: MTT reduction assay (rapid toxicity, 4 h) on A2780 cells; format: cell-based; conditions: 4 h treatment
# Protocol: (§1) First, we assessed a set of osmium complexes (similar to Ia [[Kacsir et al., 2022]) in Figure 1] and their sugar-derived ligands, in which the benzoyl protective groups on the carbohydrate moiety were replaced by aliphatic acyl groups of different chain length (straight chain C3-C7–CO). Osmium was selected as a central ion, since osmium complexes had the best biological activity in our previous studies ([Balázs et al., 2022]; [Kacsir et al., 2022]). These compounds were tested on A2780 ovarian cancer cells for toxicity and cytostasis. The therapy of ovarian cancer is centered around platinum compounds ([Brown et al., 2019]; [Sipos et al., 2021]), therefore, it was logical to use a cellular model of ovarian cancer for the initial testing of the compounds. Toxicity was assessed using the MTT assay that measures the activity of mitochondrial complex I. We chose 4 h long treatment as in an MTT assay this time point is suitable to detect rapid, direct toxicity. Cytostasis was assessed after 48 h of treatment using the SRB assay that assesses protein content that corresponds to cell count. The characteristics of the compounds are detailed in Table 2.
# (§2) 3 × 10^3 A2780 cells, were plated to 96 well plates. Cells were treated with the compounds in the concentrations indicated for either 4 h for an MTT assay or for 48 h for an SRB assay. Data is represented as average ± SD, from three biological replicates; individual assays were performed in duplicates. Values were normalized for vehicle treated cells, absorbance for vehicle treated cells equals to 1. […] Except for the Os-6 complex, Two-way ANOVA test was performed and all values were compared with each other (Tukey’s post hoc test). […] Non-linear regression was performed on the data.
# (§3) 3 × 10^3 A2780 cells, 2 × 10^3 ID8 cells and 4 × 10^3 primary fibroblasts were plated to 96 well plates. Cells were treated with the compounds in the concentrations indicated for either 4 h for an MTT assay or for 48 h for an SRB assay. Data is represented as average ± SD, from three biological replicates; individual assays were performed in duplicates. Values were normalized for vehicle treated cells, absorbance for vehicle treated cells equals to 1. Statistical significance was assessed using two-way ANOVA test comparing the free ligand and each complex as a complex-ligand pair. Before the test normality was assessed using the D’Agostino-Pearson test. The ID8 SRB Ir-7+L-7 dataset had lognormal distribution. […] All other datasets had normal distribution. For better visibility the p values are presented in an excel sheet at https://figshare.com/s/2c942a812caea8869a67. Non-linear regression was performed on the A2780 SRB and the ID8 SRB datasets.
# MTT reduction assay measures the activity of mitochondrial complex I and can be used to detect toxicity ([Virág et al., 1998]; [Henslee et al., 2016]). The assay was performed similar to ([Bakondi et al., 2003]). Briefly, cells were plated in 96 well plates the day before the assay. Cells were treated with the compounds for 4 h, then MTT was added in 0.5 mg/ml final concentration and cells were incubated at 37°C in a cell incubator. Culture media was removed and the reduced MTT dye was dissolved in dimethyl-sulfoxide (DMSO) and plates were measured in a plate photometer (Thermo Scientific Multiscan GO spectrophotometer, Waltham, MA, United States) at 540 nm. On each plate wells were designed to contain untreated/vehicle-treated cells. In calculations the readings for these wells was considered as 1 and all readings were expressed relative to these values.
# [2] = tested on: vancomycin-resistant Enterococcus (VRE) clinical isolates; assay: Broth microdilution MIC, clinical VRE isolates; format: cell-based, E. faecium; conditions: for VRE isolates susceptible out of those tested: 3 isolates tested, susceptible = MIC up to 40 µM; for MIC, VRE 25 051: clinical isolate 25 051, nephrostoma; for MIC, VRE 25 051 / MIC, VRE 25 498 / MIC, VRE 27 085: 2018; for MIC, VRE 25 498: clinical isolate 25 498, rectal swab; for MIC, VRE 27 085: clinical isolate 27 085, wound
# Protocol: (§4) The MIC values of the complexes were determined against the reference strains of S. aureus (ATCC29213) and E. faecalis. (ATCC29212) and against clinical VRE and MRSA isolates by microdilution assays (repeated at least twice in duplicates) as described in Materials and Methods. The numbers indicate how many isolates were susceptible to the compound out of those tested; i.e., 1/6 stands for 1 isolate was susceptible out of 6 tested. […] Cells were harvested and lysed. Cellular proteins was separated on a 10% SDS-PAGE gel and were blotted. Blots were probed with 4HNE antibody (top blot), the lower blot was stained with amido black. Arrows point at band of interest. Experiments were repeated three times and a representative blot is shown. On the blots brightness and contrast were adjusted. […] Each was matched to a substance and strain by its position over the x-axis categories. / Ir-7: ND and 0/3 (left plot) and ND and 0/6 (right plot) were matched to E. faecalis/VRE and S. aureus/MRSA by position only.
# (§5) We used a set of clinical isloates of S. aureus and E. faecium that were collected at the Medical Center of the University of Debrecen (Hungary) between 01. 01. 2018.—31. 12. 2020. The clinical isolates were identified using a Microflex MALDI-TOF mass spectrometer (Bruker, Billerica, MA, United States). Antibiotic susceptibility of the isolates was tested following the European Committee on Antimicrobial Susceptibility Testing ([EUCAST, 2021]) guidelines valid at the time of collection.
# (§6) Microdilution experiments were performed according to the standards of EUCAST ([EUCAST, 2021]). […] The inoculated plates were incubated for 24 h at 37°C then were assessed visually. […] All experiments were performed at least twice in duplicates.
# [3] = tested on: methicillin-resistant Staphylococcus aureus (MRSA) clinical isolates; assay: Broth microdilution MIC, clinical MRSA isolates; format: cell-based; conditions: for MRSA isolates susceptible out of those tested: 6 isolates tested, susceptible = MIC up to 40 µM; for MIC, MRSA 20 426: clinical isolate 20 426, blood, 2020; for MIC, MRSA 24 035: clinical isolate 24 035, wound; for MIC, MRSA 24 035 / MIC, MRSA 24 268 / MIC, MRSA 24 272 / MIC, MRSA 24 328 / MIC, MRSA 24 408: 2018; for MIC, MRSA 24 268: clinical isolate 24 268, throat; for MIC, MRSA 24 272: clinical isolate 24 272, throat; for MIC, MRSA 24 328: clinical isolate 24 328, throat; for MIC, MRSA 24 408: clinical isolate 24 408, bronchial
# Protocol: as §4, §5, §6
# [4] = tested on: Staphylococcus aureus (ATCC29213); assay: Broth microdilution MIC, Staphylococcus aureus reference strain; format: cell-based; conditions: for MIC, Reference S. aureus: Staphylococcus aureus ATCC29213, 24 h; for MIC (μM) (S. aureus), Figure 11: reference strain ATCC29213
# Protocol: as §4
# (§7) We used the reference strains of Staphylococcus aureus (ATCC29213), and Enterococcus faecalis (ATCC29212) that were purchased from ATCC (Manassas, VA, United States).
# as §6
# [5] = Determination of the distribution coefficients (logD); format: physicochemical; conditions: distribution coefficient
# [6] = tested on: A2780 ovarian cancer cells; assay: SRB assay (cytostasis, 48 h) on A2780 cells; format: cell-based; conditions: 48 h treatment
# Protocol: as §1, §2, §3
# The assay was performed similar to ([Kovács et al., 2019]). Cells were seeded in 96 well plates the day before the assay. Cells were treated with the compounds for 48 h. Cells were fixed with 10% trichloroacetic acid (TCA). Fixed cells were washed in distilled water 3 times followed by staining with SRB (0.4 m/V% dissolved in 1% acetic acid) for 10 min. Stained cells were washed in 1% acetic acid 5 times; acetic acid was removed and cells were left to dry. Protein-bound SRB was released by adding 100 µl 10 mM Tris base. Plates were measured in a plate photometer (Thermo Scientific Multiscan GO spectrophotometer, Waltham, MA, United States) at 540 nm. On each plate wells were designed to contain vehicle-treated cells. In calculations the readings for these wells was considered as 1 and all readings were expressed relative to these values.
# Statistical analysis was performed using 8.0.1 version of Graphpad Prism. Values were tested for normal distribution using the D’Agostino and Pearson normality test. When necessary, values were log normalized or were normalized using the Box-Cox normalization method ([Box and Cox, 1964]) as indicated in the figure captions. […]
# [7] = tested on: Enterococcus faecalis (ATCC29212); assay: Broth microdilution MIC, Enterococcus faecalis reference strain; format: cell-based; conditions: for MIC, Reference E. faecalis: Enterococcus faecalis ATCC29212, 24 h
# Protocol: as §4, §7, §6
Compound,A2780 MTT Max. (maximal inhibition) [1] [%],VRE isolates susceptible out of those tested [2],"MIC, VRE 25 051 [2]","MIC, VRE 25 498 [2]","MIC, VRE 27 085 [2]",MRSA isolates susceptible out of those tested [3],"MIC, MRSA 20 426 [3]","MIC, MRSA 24 035 [3]","MIC, MRSA 24 268 [3]","MIC, MRSA 24 272 [3]","MIC, MRSA 24 328 [3]","MIC, MRSA 24 408 [3]","MIC, Reference S. aureus [4]",LogD [5],A2780 SRB Max. (maximal inhibition) [6] [%],IC50 [6] [µM],"MIC, Reference E. faecalis [7]","MIC (μM) (S. aureus), Figure 11 [4]",also measured
CCCC(=O)OCC1OC(n2cc(-c3ccccn3)nn2)C(OC(=O)CCC)C(OC(=O)CCC)C1OC(=O)CCC.Cc1ccc(C(C)C)cc1.F[P-](F)(F)(F)(F)F.[Cl][Os+] (mixture of isomers) [Os-2],88,3/3,10 µM,10 µM,10 µM,6/6,2.5 µM,2.5 µM,5 µM,5 µM,2.5 µM,5 µM,2.5—10 µM and 2.5 µM,2.5,>90,6.23,–,–,–
CCCCC(=O)OCC1OC(n2cc(-c3ccccn3)nn2)C(OC(=O)CCCC)C(OC(=O)CCCC)C1OC(=O)CCCC.Cc1ccc(C(C)C)cc1.F[P-](F)(F)(F)(F)F.[Cl][Os+] (mixture of isomers) [Os-3],84.4,3/3,5 µM,5 µM,5 µM,6/6,5 µM,2.5 µM,2.5 µM,5 µM,2.5 µM,5 µM,2.5—10 µM and 2.5 µM,2.6,>90,2.1,2.5—10 µM and 5 µM,–,–
CCCCCC(=O)OCC1OC(n2cc(-c3ccccn3)nn2)C(OC(=O)CCCCC)C(OC(=O)CCCCC)C1OC(=O)CCCCC.Cc1ccc(C(C)C)cc1.F[P-](F)(F)(F)(F)F.[Cl][Os+] (mixture of isomers) [Os-4],84.4,3/3,40 µM,40 µM,40 µM,1/6,40< µM,40< µM,40< µM,40< µM,40< µM,40 µM,40< µM,2.7,>90,3.87,40 µM,"ND (ND—not detected, MIC>40 µM)",–
CCCCCCC(=O)OCC1OC(n2cc(-c3ccccn3)nn2)C(OC(=O)CCCCCC)C(OC(=O)CCCCCC)C1OC(=O)CCCCCC.Cc1ccc(C(C)C)cc1.F[P-](F)(F)(F)(F)F.[Cl][Os+] (mixture of isomers) [Os-5],83.4,0/3,40< µM,40< µM,40< µM,0/6,40< µM,40< µM,40< µM,40< µM,40< µM,40< µM,40< µM,2.7,>90,15.9,40< µM,"ND (ND—not detected, MIC>40 µM)","MIC (μM) (E. faecalis), Figure 11 ([7]; reference strain ATCC29212, printed in the picture): ND (ND—not detected, MIC>40 µM); MIC against clinical VRE isolates (as a group) ([2]; 3 clinical VRE isolates): > 40 µM; MIC against clinical MRSA isolates (as a group) ([3]; 6 clinical MRSA isolates): > 40 µM"
